Assays:
Chenopodium album [1] = assay: Farming soil treatment test; type: in vivo; settings: soil surface spray prior to weed growth, 30 days
Experimental: (§1) 2. Farming Soil Treatment Test
(§2) Field soil was filled into a 1/6000 are pot followed by seeding with Digitaria ciliaris, Chenopodium album and Amaranthus retroflexus and covering with soil.
(§3) Wettable powder of compounds of formula (D shown in Table 1 prepared in compliance with the preparation examples were diluted with water to the prescribed amount of chemical and uniformly sprayed onto each soil surface layer using 10 liters of sprayed water per are prior to weed growth following seeding.
(§4) After treating for 30 days in a glass greenhouse at an average atmospheric temperature of 30° C., the herbicidal efficacy thereof was investigated.
(§5) Evaluation of herbicidal efficacy was carried out in the same manner as the above-mentioned Test Example 1.

Digitaria ciliaris [2] = assay: Farming soil treatment test; type: in vivo; settings: soil surface spray prior to weed growth, 30 days
Experimental: as §1, §2, §3, §4, §5

Amaranthus retroflexus [3] = assay: Farming soil treatment test; type: in vivo; settings: soil surface spray prior to weed growth, 30 days
Experimental: as §1, §2, §3, §4, §5

Rice plants = assay: Paddy herbicidal activity test, phytotoxicity to transplanted rice; type: in vivo; settings: rice transplanted in 2.0 leaf stage, 30 days
Experimental: (§6) 1. Paddy Herbicidal Activity Test
(§7) Rice paddy soil was filled into a 1/10000 are pot followed by the addition of suitable amounts of water and chemical fertilizer, kneading, seeding with Echinochloa crus-galli, Monochoria vaginalis and Scirpus juncoides and maintaining in an irrigated state at a water depth of 3 cm.
(§8) Wettable powder of Target Compound (I) shown in Table 1 prepared in compliance with the preparation examples were diluted with a suitable amount of water, rice plants in the 2.0 leaf stage were transplanted during 3.5 leaf stage of Echinochloa crus-galli, and treated by dropping in chemical in the prescribed amount per are using a pipette.
as §4
(§9) Evaluation of herbicidal efficacy was carried out by comparing growth inhibition rate (%) with an untreated group, while evaluation of phytotoxicity was carried out by comparing growth inhibition rate (%) with the state of a complete eradication group, and were evaluated at 11 levels indicated below.

Chenopodium album [4] = assay: Weed foliar treatment test; type: in vivo; settings: foliar spray, 3 weeks
Experimental: (§10) 3. Weed Foliar Treatment Test
(§11) Soil was filled into a 1/6000 are pot followed by seeding with Digitaria ciliaris, Chenopodium album and Amaranthus retroflexus, covering with soil, and cultivating in a glass greenhouse at an average atmospheric temperature of 25° C.
(§12) Wettable powder of Target Compound (I) shown in Table 1 prepared in compliance with the preparation examples were diluted with water to the prescribed amount of chemical and uniformly sprayed onto the weeds using 15 liters of sprayed water per are when Digitaria ciliaris had grown to the 1.0 to 2.0 leaf stage.
(§13) After treating for 3 weeks in a glass greenhouse at an average atmospheric temperature of 25° C., the herbicidal efficacy thereof was investigated.
as §5

Digitaria ciliaris [5] = assay: Weed foliar treatment test; type: in vivo; settings: foliar spray at 1.0 to 2.0 leaf stage of Digitaria ciliaris, 3 weeks
Experimental: as §10, §11, §12, §13, §5

Amaranthus retroflexus [6] = assay: Weed foliar treatment test; type: in vivo; settings: foliar spray, 3 weeks
Experimental: as §10, §11, §12, §13, §5

Monochoria vaginalis = assay: Paddy herbicidal activity test; type: in vivo; settings: irrigated paddy pot, 30 days
Experimental: as §6, §7, §8, §4, §9

Echinochloa crus-galli = assay: Paddy herbicidal activity test; type: in vivo; settings: irrigated paddy pot, treated at 3.5 leaf stage of Echinochloa crus-galli, 30 days
Experimental: as §6, §7, §8, §4, §9

Scirpus juncoides = assay: Paddy herbicidal activity test; type: in vivo; settings: irrigated paddy pot, 30 days
Experimental: as §6, §7, §8, §4, §9

Compound	herbicidal efficacy (growth inhibition rate level) Chenopodium album (Chenopodium album [1]; 5g a.i./10a)	herbicidal efficacy (growth inhibition rate level) Chenopodium album (Chenopodium album [1]; 10g a.i./10a)	herbicidal efficacy (growth inhibition rate level) Digitaria ciliaris (Digitaria ciliaris [2]; 5g a.i./10a)	herbicidal efficacy (growth inhibition rate level) Digitaria ciliaris (Digitaria ciliaris [2]; 10g a.i./10a)	herbicidal efficacy (growth inhibition rate level) Amaranthus retroflexus (Amaranthus retroflexus [3]; 5g a.i./10a)	herbicidal efficacy (growth inhibition rate level) Amaranthus retroflexus (Amaranthus retroflexus [3]; 10g a.i./10a)	phytotoxicity (growth inhibition rate level) Rice plants (Rice plants; 1g a.i./10a)	phytotoxicity (growth inhibition rate level) Rice plants (Rice plants; 5g a.i./10a)	herbicidal efficacy (growth inhibition rate level) Chenopodium album (Chenopodium album [4]; 5g a.i./10a)	herbicidal efficacy (growth inhibition rate level) Chenopodium album (Chenopodium album [4]; 10g a.i./10a)	herbicidal efficacy (growth inhibition rate level) Digitaria ciliaris (Digitaria ciliaris [5]; 5g a.i./10a)	herbicidal efficacy (growth inhibition rate level) Digitaria ciliaris (Digitaria ciliaris [5]; 10g a.i./10a)	herbicidal efficacy (growth inhibition rate level) Amaranthus retroflexus (Amaranthus retroflexus [6]; 5g a.i./10a)	herbicidal efficacy (growth inhibition rate level) Amaranthus retroflexus (Amaranthus retroflexus [6]; 10g a.i./10a)	melting point [°C]	herbicidal efficacy (growth inhibition rate level) Monochoria vaginalis (Monochoria vaginalis; 1g a.i./10a)	herbicidal efficacy (growth inhibition rate level) Monochoria vaginalis (Monochoria vaginalis; 5g a.i./10a)	herbicidal efficacy (growth inhibition rate level) Echinochloa crus-galli (Echinochloa crus-galli; 1g a.i./10a)	herbicidal efficacy (growth inhibition rate level) Echinochloa crus-galli (Echinochloa crus-galli; 5g a.i./10a)	herbicidal efficacy (growth inhibition rate level) Scirpus juncoides (Scirpus juncoides; 1g a.i./10a)	further results
N#Cc1cnn(-c2nn3c(c2Cl)CCCC3)c1N(CCCl)C(=O)C(F)(F)F [Compound 1, N-(2-chloroethyl)-N-(1-(3-chloro-4,5,6,7-tetrahydropyrazolo[1,5-a]pyridin-2-yl)-4-cyanopyrazol-5-yl)-2,2,2-trifluoroacetamide]	10 (100%)	10 (100%)	10 (100%)	10 (100%)	10 (100%)	10 (100%)	0 (0 (exponent): 0% to less than 10% (growth inhibition rate))	1 (10% to less than 20%)	10 (100%)	10 (100%)	10 (100%)	10 (100%)	10 (100%)	10 (100%)	87 to 89	8 (80% to less than 90%)	9 (90% to less than 100%)	9 (90% to less than 100%)	10 (100%)	9 (90% to less than 100%)	herbicidal efficacy (growth inhibition rate level) Scirpus juncoides (Scirpus juncoides; 5g a.i./10a): 10 (100%)
COCCN(C(=O)C(F)(F)F)c1c(C#N)cnn1-c1nn2c(c1Cl)CCCC2 [Compound 2, N-(1-(3-chloro-4,5,6,7-tetrahydropyrazolo[1,5-a]pyridin-2-yl)-4-cyanopyrazol-5-yl)-N-(2-methoxyethyl)-2,2,2-trifluoroacetamide]	10 (100%)	10 (100%)	10 (100%)	10 (100%)	10 (100%)	10 (100%)	0 (0 (exponent): 0% to less than 10% (growth inhibition rate))	1 (10% to less than 20%)	10 (100%)	10 (100%)	10 (100%)	10 (100%)	10 (100%)	10 (100%)	102 to 103	8 (80% to less than 90%)	9 (90% to less than 100%)	9 (90% to less than 100%)	9 (90% to less than 100%)	9 (90% to less than 100%)	herbicidal efficacy (growth inhibition rate level) Scirpus juncoides (Scirpus juncoides; 5g a.i./10a): 9 (90% to less than 100%)
